Among the test systems are SF-268 CNS; SF-295 CNS; MCF7 breast; ACHN renal; SF-539 CNS; HOP-62 NSCLC; SK-MEL-2 melanoma; PC-3 prostate; SK-MEL-5 melanoma; MALME-3M melanoma.
Holding throughout (assay): inhibition of tumour cell growth, NCI panel, 48 h

Molecules are shown by their SMILES. Several values for one entry are separate records, joined by “and”; a condition that tells them apart may be missing. Equal values may be shown once.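 Dose response: 5 concentrations. Exposure: 48 h. Format: 96-well plates. Endpoint: linear interpolation; highest concentration if not reached. GI50 is the concentration that inhibits growth by half. Definition used: TGI = concentration required for complete inhibition of growth.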

As for `CC(=O)O[C@H]1C(=O)[C@@]2(C)[C@H]([C@H](OC(=O)c3ccccc3)[C@]3([O-])C[C@H](OC(=O)[C@H]([O-])[C@@H](NC(=O)c4ccccc4)c4ccccc4)C(C)=C1C3(C)C)[C@]1(OC(C)=O)CO[C@@H]1C[C@@H]2[O-].[Fe+3]`, the GI50 in the test with SF-268 CNS is 0.104 µM and 0.165 µM; in the test on SF-295 CNS, 0.0836 µM; in the test on MCF7 breast, 0.0226 µM and 0.0315 µM; in the test on ACHN renal it was 2.48 µM and 2.96 µM; in the test with SF-539 CNS, 0.029 µM and 0.0519 µM; in the test on SK-MEL-2 melanoma, 0.11 µM and 0.161 µM. Also, the GI50 in the test on PC-3 prostate was 0.235 µM and 0.219 µM; in the test on SK-MEL-5 melanoma, 0.0521 µM and 0.0683 µM. In addition, the TGI is 45.3 µM and > 100 µM in the test with SF-268 CNS; over 100 µM with SF-295 CNS; 65 µM and 32.7 µM in the test on MCF7 breast; 65 µM and > 100 µM in the test with ACHN renal; 0.549 µM and 0.486 µM in the test with SF-539 CNS; 10.5 µM and 48.8 µM in the test with HOP-62 NSCLC. The TGI with PC-3 prostate was 65 µM and > 100 µM; with SK-MEL-5 melanoma, 65 µM and 19.6 µM.

Take `O=C1N[C@@H](O)[C@@H]2ON=C(c3ccccc3)[C@H]12`: the TGI in the test on SF-268 CNS, with SF-295 CNS, in the test on MALME-3M melanoma, in the test with ACHN renal, in the test on SF-539 CNS and with HOP-62 NSCLC was over 100 µM in each case. Moreover, the TGI in the test with SK-MEL-2 melanoma and in the test on SK-MEL-5 melanoma was over 100 µM each time.

For the compound `O=C1c2ccccc2-c2c1c1ccccc1c(=O)n2CCNCCCNCCn1c2c(c3ccccc3c1=O)C(=O)c1ccccc1-2`, the GI50 in the test with SF-268 CNS was 0.156 µM; in the test with SF-295 CNS it was 0.00771 µM; in the test with MCF7 breast it was 0.0885 µM; with ACHN renal it was 0.00672 µM; with SF-539 CNS, 0.0848 µM; with HOP-62 NSCLC, 0.0723 µM. For the same compound, the figures for the GI50 in the test with SK-MEL-2 melanoma, with PC-3 prostate and with SK-MEL-5 melanoma were 0.514 µM, 0.293 µM and 1.75 µM, respectively. Besides, the TGI stood at 6.81 µM in the test with SF-268 CNS; 0.368 µM in the test with SF-295 CNS; 0.699 µM in the test with ACHN renal; 1.36 µM with SF-539 CNS; 1.16 µM in the test with HOP-62 NSCLC; 2.2 µM with SK-MEL-2 melanoma. The TGI in the test with PC-3 prostate was found to be 1.24 µM; in the test on SK-MEL-5 melanoma, 7.9 µM.

With `COc1ccc2c(c1)C=CC(C#N)N2C(=O)c1ccccc1` (centres undefined), the GI50 was 0.488 µM in the test on SF-268 CNS; under 0.01 µM in the test on SF-295 CNS; under 0.01 µM with MCF7 breast; 0.0411 µM in the test on ACHN renal; under 0.01 µM in the test on SF-539 CNS; under 0.01 µM with HOP-62 NSCLC. The GI50 with SK-MEL-2 melanoma, in the test on PC-3 prostate and with SK-MEL-5 melanoma was under 0.01 µM each time. The TGI in the test with SF-268 CNS is over 100 µM; in the test with SF-295 CNS, over 100 µM; in the test with MCF7 breast, over 100 µM; in the test on ACHN renal, over 100 µM; with SF-539 CNS, 0.0238 µM; in the test with HOP-62 NSCLC, over 100 µM. The TGI with SK-MEL-2 melanoma is over 100 µM; with PC-3 prostate it was over 100 µM; in the test with SK-MEL-5 melanoma it was 4.68 µM.

For `CN1CCN(C)C1c1cccc(C2N(C)CCN2C)c1`, the TGI in the test on SF-268 CNS, with SF-295 CNS, in the test with ACHN renal, in the test on SF-539 CNS, in the test with HOP-62 NSCLC and in the test with SK-MEL-2 melanoma was over 100 µM in each case.

Consider `O=C1c2ccccc2-c2cccc3ccc(Cc4ccccc4)c1c23`, for which the TGI with SF-268 CNS, in the test on SF-295 CNS, in the test on MALME-3M melanoma, in the test on ACHN renal, with SF-539 CNS and with HOP-62 NSCLC was over 100 µM each time. In addition, the TGI in the test on SK-MEL-2 melanoma and in the test with SK-MEL-5 melanoma was over 100 µM each time.

Consider `O=c1c2ccccc2c2c3c1cccc3c1cccc3c(=O)c4ccccc4c2c31`, for which the TGI in the test with SF-268 CNS, in the test with SF-295 CNS, in the test with MALME-3M melanoma, in the test on ACHN renal, in the test with SF-539 CNS and in the test with HOP-62 NSCLC was over 100 µM in each case. Further, the TGI in the test with SK-MEL-2 melanoma and in the test on SK-MEL-5 melanoma was over 100 µM each time.

With `c1ccc2c(c1)N=C(c1cccc3ccccc13)CC(c1cccc3ccccc13)S2` (centres undefined), the TGI in the test with SF-268 CNS was 20.4 µM; in the test on SF-295 CNS it was 27.2 µM; with MALME-3M melanoma, 28.7 µM; with ACHN renal it was 23.5 µM; with SF-539 CNS it was 14.5 µM; in the test on HOP-62 NSCLC, 26.1 µM. Besides, the TGI in the test on SK-MEL-2 melanoma amounted to 33 µM; with SK-MEL-5 melanoma, 22.1 µM.

For the compound `CC(=O)c1c(C)n([O-])c2cc(C)c(C)cc2[n+]1=O`, the TGI in the test on SF-268 CNS, in the test on SF-295 CNS, in the test with MALME-3M melanoma, in the test with ACHN renal, with SF-539 CNS and in the test on HOP-62 NSCLC was over 100 µM throughout. Further, the TGI with SK-MEL-2 melanoma and with SK-MEL-5 melanoma was over 100 µM in each case.

Turning to `N#Cc1c(N)c(C(=O)O)nn(-c2cccc(C(F)(F)F)c2)c1=O`, the TGI in the test on SF-268 CNS, in the test on SF-295 CNS, in the test with MALME-3M melanoma, in the test with ACHN renal, in the test with SF-539 CNS and in the test on SK-MEL-2 melanoma was over 100 µM each time. In the test on SK-MEL-5 melanoma, this compound registered a TGI of over 100 µM.

Consider `O=C(Nc1ccc(S(=O)(=O)N[C@@H](C(=O)O)c2ccccc2)cc1)c1ccc(F)cc1`, for which the TGI in the test on SF-268 CNS, in the test on SF-295 CNS, with MALME-3M melanoma, in the test with ACHN renal, in the test with SF-539 CNS and in the test on SK-MEL-2 melanoma was over 100 µM in each case. Also, the TGI in the test with SK-MEL-5 melanoma was over 100 µM.

Turning to `COc1cc(/C=C\c2ccc(O)cc2)cc(OC)c1OC`, the TGI is 4.63 µM in the test on SF-268 CNS; 5.48 µM with SF-295 CNS; over 40.9 µM in the test with MALME-3M melanoma; over 100 µM in the test with ACHN renal; over 100 µM with SF-539 CNS; over 100 µM with HOP-62 NSCLC. Further, the TGI in the test on SK-MEL-2 melanoma was over 100 µM; with SK-MEL-5 melanoma, 18.6 µM.

Turning to `NC1=NC(=O)C(CC(=O)Nc2ccc([N+](=O)[O-])cc2[N+](=O)[O-])S1` (centres undefined), the TGI with SF-268 CNS, in the test on SF-295 CNS, with MALME-3M melanoma, in the test with ACHN renal, in the test on HOP-62 NSCLC and in the test on SK-MEL-2 melanoma was over 100 µM throughout. This compound came in with a TGI in the test on SK-MEL-5 melanoma of over 100 µM.

As for `CC(=O)OCCOCBr`, the TGI in the test with SF-268 CNS, with SF-295 CNS, in the test on MALME-3M melanoma, in the test with ACHN renal, in the test on SF-539 CNS and with HOP-62 NSCLC was over 100 µM each time. Besides, the TGI with SK-MEL-2 melanoma and in the test on SK-MEL-5 melanoma was over 100 µM in each case.

Values taken from PubChem BioAssay (NCI).
